Test results taken from DBAASP.
Converted amounts (≈) assume the structure as drawn. Each block holds one compound with its values, some of them ahead of it.

Assays:
Test in all cases: ≥ marks a high value that may be exact or a test limit, other limits are often not marked, values filed in µg/mL are converted to µM
[1] = tested on: Staphylococcus aureus ATCC 25923
[2] = tested on: Pseudomonas aeruginosa ATCC 27853
[3] = tested on: Staphylococcus epidermidis ATCC 12228
[4] = tested on: Escherichia coli ATCC 25922
[5] = tested on: Klebsiella pneumoniae ATCC 700603
[6] = tested on: Bacillus subtilis ATCC 6633
[7] = tested on: Bacillus subtilis ATCC 23857
[8] = tested on: Acinetobacter baumannii ATCC 19606
[9] = tested on: Enterococcus faecalis ATCC 29212
[10] = tested on: Candida albicans ATCC 90028
[11] = tested on: Staphylococcus aureus NCTC 8325
Klebsiella pneumoniae = tested on: Klebsiella pneumoniae
[12] = tested on: Salmonella enterica subsp. enterica serovar Typhimurium ATCC 14028
Bacillus subtilis = tested on: Bacillus subtilis
Staphylococcus aureus = tested on: Staphylococcus aureus
Escherichia coli = tested on: Escherichia coli
Salmonella typhimurium = tested on: Salmonella typhimurium
Pseudomonas aeruginosa = tested on: Pseudomonas aeruginosa
[13] = tested on: Klebsiella pneumoniae ATCC 13883
[14] = tested on: Staphylococcus aureus ATCC 43300
[15] = tested on: Staphylococcus epidermidis
[16] = tested on: Candida albicans ATCC 10231
Bacillus cereus = tested on: Bacillus cereus
[17] = tested on: Escherichia coli DH5alpha

MIC [1]: 3.2 µM (≈ 6.51 µg/mL)
MIC [2]: 3.2 µM (≈ 6.51 µg/mL)
MIC [3]: 1.6 µM (≈ 3.26 µg/mL)
MIC [4]: 1.6 µM (≈ 3.26 µg/mL)
MIC [5]: 3.2 µM (≈ 6.51 µg/mL)
MIC [6]: 1.6 µM (≈ 3.26 µg/mL)
Compound: CC(=O)N[C@@H](Cc1ccccc1)C(=O)N[C@@H](CCCCN)C(=O)N[C@@H](CCCCN)C(=O)N[C@@H](CC(C)C)C(=O)N[C@@H](CCCCN)C(=O)N[C@@H](CCCCN)C(=O)N[C@@H](CC(C)C)C(=O)N[C@@H](Cc1ccccc1)C(=O)N[C@@H](CO)C(=O)N[C@@H](CCCCN)C(=O)N[C@@H](CC(C)C)C(=O)N[C@@H](CCCCN)C(=O)N[C@@H](CC(N)=O)C(=O)N[C@@H](Cc1c[nH]c2ccccc12)C(=O)N[C@@H](Cc1c[nH]c2ccccc12)C(N)=O [FKKLKKLFSKLKNWW]

MIC [1]: > 512 µM
MIC [2]: > 512 µM
MIC [3]: > 512 µM
MIC [7]: ≥ 512 µM
MIC [4]: > 512 µM
MIC [5]: > 512 µM
MIC [8]: > 512 µM
MIC [9]: > 512 µM
Compound: C[C@H](NC(=O)[C@H](C)NC(=O)[C@@H](NC(=O)[C@H](CCCCN)NC(=O)[C@H](C)NC(=O)[C@H](CCCN=C(N)N)NC(=O)[C@H](CCCCN)NC(=O)[C@H](C)NC(=O)[C@H](C)NC(=O)CN)[C@@H](C)O)C(N)=O [GAAKRAKTAA]

MIC [4]: 100 µM (≈ 234 µg/mL)
MIC [10]: ≥ 200 µM
MIC [11]: ≥ 200 µM
Compound: CC[C@H](C)[C@H](NC(=O)[C@H](CC(C)C)NC(=O)[C@H](CC(=O)O)NC(=O)[C@H](CO)NC(=O)[C@@H](NC(=O)[C@H](C)NC(=O)[C@H](CCCCN)NC(=O)[C@@H](NC(=O)[C@H](CCCCN)NC(=O)[C@H](Cc1cnc[nH]1)NC(=O)[C@@H]1CCCN1C(=O)[C@@H](NC(=O)[C@H](CC(C)C)NC(=O)[C@@H]1CCCN1C(=O)CNC(=O)[C@@H](NC(=O)[C@H](Cc1ccc(O)cc1)NC(=O)[C@H](CCCCN)NC(=O)[C@H](CCSC)NC(=O)[C@H](Cc1ccccc1)NC(=O)CN)[C@@H](C)CC)[C@@H](C)CC)C(C)C)[C@@H](C)CC)C(N)=O [GFMKYIGPLIPHKVKAISDLI]

MIC [4]: 12.5 µM (≈ 29.6 µg/mL)
MIC [10]: ≥ 50 µM
MIC [11]: 25 µM (≈ 59.2 µg/mL)
Compound: CC[C@H](C)[C@H](NC(=O)[C@H](CC(C)C)NC(=O)[C@H](CCCCN)NC(=O)[C@H](CO)NC(=O)[C@@H](NC(=O)[C@H](C)NC(=O)[C@H](CCCCN)NC(=O)[C@@H](NC(=O)[C@H](C)NC(=O)[C@H](Cc1cnc[nH]1)NC(=O)[C@@H]1CCCN1C(=O)[C@@H](NC(=O)[C@H](CC(C)C)NC(=O)[C@@H]1CCCN1C(=O)[C@H](CCCCN)NC(=O)[C@@H](NC(=O)[C@H](Cc1ccc(O)cc1)NC(=O)[C@H](CCCCN)NC(=O)[C@H](CCSC)NC(=O)[C@H](Cc1ccccc1)NC(=O)CN)[C@@H](C)CC)[C@@H](C)CC)C(C)C)[C@@H](C)CC)C(=O)O [GFMKYIKPLIPHAVKAISKLI]

MIC (Klebsiella pneumoniae): > 128 µM
MIC [12]: > 128 µM
MIC [4]: 128 µM (≈ 257 µg/mL)
Compound: CC[C@H](C)[C@H](NC(=O)[C@H](Cc1ccc(O)cc1)NC(=O)[C@@H](NC(=O)[C@@H]1CCCN1C(=O)[C@H](CCCN=C(N)N)NC(=O)[C@H](CC(N)=O)NC(=O)[C@H](CC(N)=O)NC(=O)CN)C(C)C)C(=O)N1CCC[C@H]1C(=O)N[C@@H](CCC(N)=O)C(=O)N1CCC[C@H]1C(=O)N[C@@H](CCCN=C(N)N)C(=O)N1CCC[C@H]1C(=O)N[C@@H](Cc1cnc[nH]1)C(=O)N1CCC[C@H]1C(=O)N[C@@H](CCCN=C(N)N)C(=O)N[C@@H](CC(C)C)C(=O)O [GNNRPVYIPQPRPHPRL]

MIC (Bacillus subtilis): 8 µM (≈ 14.1 µg/mL)
MIC (Staphylococcus aureus): 16 µM (≈ 28.2 µg/mL)
MIC (Escherichia coli): 8 µM (≈ 14.1 µg/mL)
MIC (Salmonella typhimurium): 8 µM (≈ 14.1 µg/mL)
Compound: CC(C)[C@H](NC(=O)CNC(=O)[C@H](CCCN=C(N)N)NC(=O)[C@@H](NC(=O)[C@@H](NC(=O)[C@@H](NC(=O)[C@H](CCCN=C(N)N)NC(=O)CNC(=O)[C@@H](NC(=O)[C@H](CCCN=C(N)N)NC(=O)[C@@H](NC(=O)[C@@H](NC(=O)[C@@H](NC(=O)CN)C(C)C)C(C)C)C(C)C)C(C)C)C(C)C)C(C)C)C(C)C)C(=O)N[C@@H](CCCN=C(N)N)C(=O)N[C@@H](CCCN=C(N)N)C(N)=O [GVVVRVGRVVVRGVRR]

MIC (Klebsiella pneumoniae): 12.6 µM (≈ 16 µg/mL)
MIC [1]: 12.6 µM (≈ 16 µg/mL)
MIC (Pseudomonas aeruginosa): 25.3 µM (≈ 32 µg/mL)
MIC [13]: 12.6 µM (≈ 16 µg/mL)
MIC [14]: > 101 µM
MIC (Staphylococcus aureus): 50.6 µM (≈ 64 µg/mL)
MIC (Escherichia coli): 12.6 µM (≈ 16 µg/mL)
MIC [15]: 25.3 µM (≈ 32 µg/mL)
MIC [9]: > 101 µM
MIC [16]: > 101 µM
Compound: CC(C)[C@H](NC(=O)CNC(=O)[C@@H](N)Cc1cnc[nH]1)C(=O)N[C@@H](CO)C(=O)NCC(=O)N[C@@H](Cc1cnc[nH]1)C(=O)NCC(=O)N[C@@H](CCC(N)=O)C(=O)N[C@@H](Cc1cnc[nH]1)C(=O)NCC(=O)N[C@H](C(=O)N[C@@H](Cc1cnc[nH]1)C(=O)NCC(=O)O)C(C)C [HGVSGHGQHGVHG]

MIC (Bacillus cereus): ≥ 120 µM
MIC (Escherichia coli): > 120 µM
Compound: CC[C@H](C)[C@H](NC(=O)CNC(=O)[C@H](CCCN=C(N)N)NC(=O)[C@H](C)NC(=O)[C@H](CCSC)NC(=O)[C@@H]1CCCN1C(=O)[C@H](C)NC(=O)CNC(=O)[C@H](CCC(=O)O)NC(=O)[C@H](CC(C)C)NC(=O)[C@@H]1CCCN1C(=O)[C@H](CC(=O)O)NC(=O)[C@H](Cc1ccccc1)NC(=O)[C@@H](N)CCCCN)C(=O)N[C@H](C(=O)N[C@@H](CC(C)C)C(=O)N[C@@H](CCC(=O)O)C(=O)N[C@@H](CCCCN)C(=O)N[C@H](C(=O)NCC(=O)O)C(C)C)C(C)C [KFDPLEGAPMARGIVLEKVG]

MIC [4]: > 150 µM
MIC [10]: ≥ 150 µM
MIC [11]: ≥ 48 µM
Compound: CC[C@H](C)[C@H](NC(=O)[C@H](CCCCN)NC(=O)[C@H](CCCCN)NC(=O)[C@H](C)NC(=O)[C@H](CC(C)C)NC(=O)[C@H](CC(N)=O)NC(=O)[C@@H](NC(=O)[C@H](CC(C)C)NC(=O)[C@@H](NC(=O)CNC(=O)[C@H](CC(C)C)NC(=O)[C@H](Cc1ccccc1)NC(=O)[C@@H](N)CC(N)=O)[C@@H](C)O)[C@@H](C)CC)C(=O)N[C@@H](CCSC)C(N)=O [NFLGTLINLAKKIM]

MIC (Bacillus cereus): ≥ 124 µM
MIC (Escherichia coli): > 124 µM
Compound: CC[C@H](C)[C@H](NC(=O)[C@@H](NC(=O)[C@H](C)NC(=O)[C@@H]1CCCN1C(=O)[C@H](Cc1ccccc1)NC(=O)[C@@H](NC(=O)[C@H](CCCCN)NC(=O)[C@H](CO)NC(=O)[C@H](C)NC(=O)[C@@H](NC(=O)[C@H](CCCN=C(N)N)NC(=O)CNC(=O)[C@@H](NC(=O)[C@@H](NC(=O)[C@@H]1CCCN1)C(C)C)C(C)C)C(C)C)C(C)C)C(C)C)C(=O)NCC(=O)N[C@@H](CC(C)C)C(=O)N[C@H](C(=O)N[C@@H](CCCCN)C(=O)N[C@@H](CCCCN)C(=O)O)C(C)C [PVVGRVASKVFPAVIGLVKK]

MIC (Bacillus cereus): ≥ 116 µM
MIC (Escherichia coli): > 116 µM
Compound: CC[C@H](C)[C@H](NC(=O)[C@H](Cc1ccc(O)cc1)NC(=O)[C@@H](NC(=O)[C@@H](NC(=O)[C@H](C)NC(=O)[C@@H]1CCCN1C(=O)[C@@H](NC(=O)[C@H](CO)NC(=O)[C@H](CS)NC(=O)[C@H](CCCCN)NC(=O)[C@@H](NC(=O)[C@H](CCCCN)NC(=O)[C@@H](N)C(C)C)[C@@H](C)O)C(C)C)C(C)C)C(C)C)C(=O)N[C@@H](CC(C)C)C(=O)N[C@H](C(=O)N[C@@H](CCCCN)C(=O)N[C@H](C(=O)N[C@@H](Cc1ccccc1)C(=O)N[C@@H](CCCCN)C(=O)N[C@@H](CO)C(=O)O)[C@@H](C)O)C(C)C [VKTKCSVPAVVYILVKTFKS]

MIC [1]: > 200 µM
MIC [2]: > 200 µM
MIC (Bacillus subtilis): ≥ 200 µM
MIC [17]: ≥ 50 µM
Compound: CC[C@H](C)[C@H](NC(=O)[C@H](Cc1ccccc1)NC(=O)[C@@H](NC(=O)[C@H](CC(C)C)NC(=O)[C@H](CCCN=C(N)N)NC(=O)[C@H](CCCCN)NC(=O)[C@H](CCCN=C(N)N)NC(=O)[C@H](CCCCN)NC(=O)[C@H](CC(C)C)NC(=O)[C@H](CC(C)C)NC(=O)[C@@H](NC(=O)[C@@H](N)Cc1ccc(O)cc1)C(C)C)[C@@H](C)CC)C(=O)O [YVLLKRKRLIFI]
